Experimental data as given in article PMC5484120 (Marine Drugs, 2017).

Molecular target: T1, rα1β1εδ nAChR (UniProt P20782+P25108+P25109+P25110)
T1 construct: expressed in transfected cells; host or cells: Xenopus laevis oocytes injected with cRNA
Test: cell-based
Set-up: species or system rodent: rat (α1, β1, and δ), mouse (ε)

T1 sequence (P20782 21-493): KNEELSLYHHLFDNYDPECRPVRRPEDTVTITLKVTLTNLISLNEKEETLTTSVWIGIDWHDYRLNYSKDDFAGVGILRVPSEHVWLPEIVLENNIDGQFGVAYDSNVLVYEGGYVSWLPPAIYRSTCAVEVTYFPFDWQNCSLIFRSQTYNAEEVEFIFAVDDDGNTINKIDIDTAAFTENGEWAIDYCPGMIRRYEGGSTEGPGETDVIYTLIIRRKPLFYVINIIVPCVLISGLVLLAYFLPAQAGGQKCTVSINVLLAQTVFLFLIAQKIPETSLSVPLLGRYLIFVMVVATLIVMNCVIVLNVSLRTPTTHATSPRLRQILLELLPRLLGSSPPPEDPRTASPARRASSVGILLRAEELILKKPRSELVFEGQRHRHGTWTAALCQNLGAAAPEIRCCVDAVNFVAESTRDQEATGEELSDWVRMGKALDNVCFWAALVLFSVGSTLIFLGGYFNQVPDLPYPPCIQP
T1 sequence (P25108 21-457): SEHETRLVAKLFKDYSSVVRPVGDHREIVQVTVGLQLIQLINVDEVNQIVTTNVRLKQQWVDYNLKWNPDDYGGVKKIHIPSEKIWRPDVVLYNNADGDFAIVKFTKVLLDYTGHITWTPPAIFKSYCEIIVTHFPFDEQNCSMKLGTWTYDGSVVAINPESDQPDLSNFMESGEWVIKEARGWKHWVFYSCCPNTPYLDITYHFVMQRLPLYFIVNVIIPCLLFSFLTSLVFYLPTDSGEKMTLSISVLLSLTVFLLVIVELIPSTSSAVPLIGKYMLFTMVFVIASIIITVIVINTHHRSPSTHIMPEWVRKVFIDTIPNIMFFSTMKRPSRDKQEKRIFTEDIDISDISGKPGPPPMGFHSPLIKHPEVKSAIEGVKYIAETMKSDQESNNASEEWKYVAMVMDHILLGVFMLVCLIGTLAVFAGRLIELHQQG
T1 sequence (P25109 24-501): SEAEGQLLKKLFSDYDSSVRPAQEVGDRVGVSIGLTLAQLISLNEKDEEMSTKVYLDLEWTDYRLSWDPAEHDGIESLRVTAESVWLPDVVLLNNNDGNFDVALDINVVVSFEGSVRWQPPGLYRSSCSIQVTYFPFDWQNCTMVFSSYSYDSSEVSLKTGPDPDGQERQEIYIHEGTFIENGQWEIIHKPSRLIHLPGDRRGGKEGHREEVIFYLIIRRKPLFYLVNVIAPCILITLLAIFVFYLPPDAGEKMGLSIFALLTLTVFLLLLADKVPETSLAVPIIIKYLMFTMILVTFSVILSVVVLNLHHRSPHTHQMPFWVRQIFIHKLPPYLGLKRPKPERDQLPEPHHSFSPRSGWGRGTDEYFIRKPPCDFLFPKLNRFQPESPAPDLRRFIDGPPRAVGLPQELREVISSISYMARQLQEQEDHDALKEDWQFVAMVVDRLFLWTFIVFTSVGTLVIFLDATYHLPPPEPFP
T1 sequence (P25110 22-517): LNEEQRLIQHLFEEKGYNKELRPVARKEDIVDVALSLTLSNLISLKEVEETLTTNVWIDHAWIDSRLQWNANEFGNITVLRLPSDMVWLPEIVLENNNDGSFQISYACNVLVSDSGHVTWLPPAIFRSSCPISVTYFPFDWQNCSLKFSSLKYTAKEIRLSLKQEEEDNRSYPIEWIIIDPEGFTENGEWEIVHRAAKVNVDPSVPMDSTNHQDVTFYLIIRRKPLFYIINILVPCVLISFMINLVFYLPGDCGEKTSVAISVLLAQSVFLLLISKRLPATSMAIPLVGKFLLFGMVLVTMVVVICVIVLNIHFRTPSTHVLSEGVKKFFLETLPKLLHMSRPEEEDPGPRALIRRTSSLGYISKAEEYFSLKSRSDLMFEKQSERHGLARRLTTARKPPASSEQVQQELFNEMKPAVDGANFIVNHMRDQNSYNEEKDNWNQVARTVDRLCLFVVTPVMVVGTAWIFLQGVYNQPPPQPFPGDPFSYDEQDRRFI

CSCC[C@H](NC(=O)[C@H](CC(C)C)NC(=O)[C@H](C)N)C(=O)N[C@@H](CO)C(=O)N[C@H](C(=O)NCC(=O)N[C@H](C(=O)N[C@@H](CC(N)=O)C(=O)N[C@@H](Cc1ccc(O)cc1)C(=O)N[C@@H](CCCNC(=N)N)C(=O)N[C@@H](CC(C)C)C(=O)N[C@@H](CC(C)C)C(=O)N[C@@H](CCCCN)C(=O)N[C@H](C(=O)N[C@@H](CSCC(N)=O)C(=O)N[C@@H](CCCNC(=N)N)C(=O)NCC(=O)N[C@@H](CO)C(=O)NCC(=O)N[C@@H](CCCNC(=N)N)C(=O)N[C@@H](Cc1ccc(O)cc1)C(=O)N[C@@H](CSCC(N)=O)C(=O)N[C@@H](CCCNC(=N)N)C(=O)N[C@@H](CO)C(=O)N1CCC[C@H]1C(=O)N[C@@H](Cc1ccc(O)cc1)C(=O)O)[C@@H](C)O)[C@@H](C)O)[C@@H](C)O [GeXXVIIA-L-Nter]
IC50: 2190 ± 240 nM | IC50 relative to GeXXVIIA-L, rα1β1εδ nAChR: about three-fold higher than GeXXVIIA-L
